Source: patent US10214766B2, “Luminescent substrate for use in artificial bioluminescent enzyme” (NATIONAL INSTITUTE OF ADVANCED INDUSTRIAL SCIENCE AND …, priority 2013, dated 2019)
“Also recorded” adds a separate entry of the source.

Key:
Type in all cases: biochemical
RLuc8.6-535 [1] = target: T1, RLuc8.6-535 (Renilla reniformis, UniProt P27652, A123S/A143M/A55T/C124A/D162E/I163L/K136R/M185L/M253L/S130A/S287L); conditions: COS-7 lysate 10 μL, LAS-4000
T1 construct: expressed in transfected cells; host or cells: COS-7 (African monkey kidney), lysate
T1 sequence (P27652 whole entry A55T/A123S/C124A/S130A/K136R/A143M/D162E/I163L/M185L/M253L/S287L): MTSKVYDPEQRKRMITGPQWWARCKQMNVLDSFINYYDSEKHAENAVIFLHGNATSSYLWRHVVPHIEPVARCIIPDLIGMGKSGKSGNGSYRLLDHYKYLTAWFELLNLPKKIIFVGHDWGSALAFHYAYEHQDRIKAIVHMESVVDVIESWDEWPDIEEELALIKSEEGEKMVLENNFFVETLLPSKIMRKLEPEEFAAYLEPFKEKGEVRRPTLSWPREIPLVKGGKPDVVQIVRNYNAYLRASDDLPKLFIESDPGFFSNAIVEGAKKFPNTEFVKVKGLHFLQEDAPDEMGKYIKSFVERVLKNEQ
Experimental: (§1) First, African monkey kidney-derived culture cells COS-7 were cultured in a 96-well plate until the culture area covered 90% of the lower area of the plate. At this stage, the plate wells growing cells were divided into two groups, and pcDNA3.1(+) vector, which expresses ALuc34 or RLuc8.6-535, was introduced into each group by the lipofection technique (TransIT-LT1), followed by further incubation for 16 hours. After incubation, the cells were lysed and an aliquot of the lysates (10 μL) is placed in a fresh 96-well plate. Different luminescent substrates were simultaneously added thereto using a multichannel pipette, and the relative luminescence intensity was immediately measured with a luminescence imaging analyzer LAS-4000 (FujiFilm). […] As used herein, “substrate selectivity” refers to a luminescence intensity of ALuc compared with the luminescence intensity of RLuc8.6-535 in the presence of the same luminescent substrate.

ALuc34 = assay: Relative luminescence intensity of lysates of COS-7 cells expressing ALuc34 after adding coelenterazine derivatives; conditions: for Ratios (A34/RLuc8.6-535): ALuc34 intensity over RLuc8.6-535 intensity, same substrate; for Luminescence intensity ALuc34 ave: COS-7 lysate 10 μL, LAS-4000; for substrate selectivity (RLuc8.6-535:ALuc, 1:x): luminescence intensity of ALuc compared with RLuc8.6-535, same substrate
Experimental: as §1

RLuc8.6-535 [2] = target: T1, RLuc8.6-535; conditions: 5 μL lysate + 30 μL substrate, AB-1850
ALuc = assay: Dual assay with or without 0.1% SDS, ALuc luminescence; conditions: sulfate
Experimental: (§2) It is advantageous for simultaneous measurement of multiple biomarkers if a dual assay can be performed in the presence of two or more bioluminescent enzymes. With this point in mind, luminescence was measured in the presence of two bioluminescent enzymes (ALuc and CLuc) (FIG. 5). First, COS-7 cells were cultured in a 96-well plate, and a plasmid that expresses ALuc or CLuc was transfected into each cellular compartment by lipofection. Under the conditions, CLuc is secreted, but ALuc largely remains inside the cells because of the endoplasmic reticulum localization signal (KDEL) attached to the terminus. 16 hours later, 10 μL of the CLuc culture solution was mixed with 2 μL of ALuc lysate. Then, the luminescence intensity was compared between the cases where 0.1% SDS was added or not, After addition of the luminescent substrates specific to ALuc and CLuc, respectively.

[3] = system: Cypridina luciferase (CLuc); assay: Dual assay with or without 0.1% SDS, CLuc luminescence
Experimental: as §2

Molecule	Luminescence intensity RLuc8.6-535 ave (RLuc8.6-535 [1]) [RLU/μg/sec/mm2]	luminescence intensity with ALuc (in words) (ALuc34)	Ratios (A34/RLuc8.6-535) (ALuc34)	Luminescence intensity ALuc34 ave (ALuc34) [RLU/μg/sec/mm2]	Spectrum peak RLuc8.6-535 (RLuc8.6-535 [2]) [nm]	effect on ALuc luminescence activity (ALuc)	effect on CLuc luminescence activity [3]	luminescent substrate selectivity (ALuc34; ALuc versus RLuc8.6-535)	substrate selectivity (RLuc8.6-535:ALuc, 1:x) (ALuc34)
O=c1c(Cc2ccccc2)nc2c(Cc3ccccc3)[nH]c(-c3ccccc3)cn1-2 [CTZ 400, coelenterazine 400A]	3	luminescence intensity was almost not observed at all	3610	11624	–	–	–	–	–
Oc1ccc(-c2cn3c(O)c(Cc4ccc(F)cc4)nc3c(CC3CCCC3)n2)cc1 [CTZ fcp, coelenterazine fcp, reference compound]	1217	–	3	3712	–	–	–	–	–
O=c1c(Cc2ccccc2)nc2c(Cc3ccccc3)[nH]c(-c3ccc(O)cc3)cn1-2 [CTZ h, coelenterazine h]	12812	strong luminescence	91	1168658	545	–	–	–	–
CCCCCCCCCCCCOS(=O)(=O)[O-].[Na+] [SDS, sodium dodecyl sulfate]	–	–	–	–	–	substantially deactivated; also recorded: mostly quenched	somewhat maintained luminescence activity	–	–
O=c1c(Cc2ccc(I)cc2)nc2c(Cc3ccccc3)[nH]c(-c3ccc(O)cc3)cn1-2 [CTZ i, coelenterazine i]	97	high luminescence intensity	9398	913540	–	–	–	about 10,000 fold	9400
Oc1ccc(Cc2nc3c(CC4CCCC4)nc(-c4ccc(O)cc4)cn3c2O)cc1 [CTZ op, coelenterazine cp, reference compound]	5354	–	8	40564	–	–	–	–	–
Oc1ccc(-c2cn3c(O)c(Cc4ccccc4)nc3c(CC3CCCC3)n2)cc1 [CTZ hcp, coelenterazine hcp, reference compound]	2058	–	3	5191	–	–	–	–	–
O=c1c(Cc2ccc(F)cc2)nc2c(Cc3ccccc3)[nH]c(-c3ccc(O)cc3)cn1-2 [CTZ f, coelenterazine f]	7151	–	134	956530	547	–	–	–	134
coelenterazine ip [CTZ ip, reference compound]	2200	–	4	8379	535	–	–	–	–
O=c1c(Cc2ccc3ccccc3c2)nc2c(Cc3ccccc3)[nH]c(-c3ccc(O)cc3)cn1-2	2132	–	81	172323	–	–	–	–	–
